From paper PMC10552397 (Cell Communication and Signaling : CCS, 2023)

Columns and labels:
[1] = tested on: JUN; test: TPP-TR/RTSA, JUN; type: binding, Homo sapiens; details: 100 nM vs DMSO, 6 h, HeLa wt
Method: (§1) TPP was performed essentially as described, but with major modifications to the TMT labeling sets and statistical data analysis for TPP-TR.
(§2) Adherent cells were washed in the dish once with DPBS and harvested by Trypsin–EDTA (0.25%, Thermo Fisher Scientific, Waltham, MA, USA, #25,200,056) treatment. […]
(§3) After temperature treatment, samples were supplemented with lysis buffer (final concentrations: 0.36 U/µL benzonase, 1.5 mM MgCl2, 1 mM Na3VO4, 10 mM NaF, 2.5 mM Na4P2O7, 0.8% w/v NP-40) for 1 h on ice. […] The total protein concentration of the resulting cell extracts containing the fraction of soluble, non-denatured proteins was determined (Pierce 660 nm Protein Assay, BSA as standard). […] The two (37 °C or 50 °C) x ten (concentrations) x three (replicates) = 60 TPP-CCR samples and two (treatment and control) x ten (temperatures) x three (replicates) = 60 TPP-TR samples were analyzed by LC–MS/MS. GRASP55 was additionally quantified from the TPP-TR samples by immunoblotting as described in the respective section.
(§4) For TPP-CCR, SP3 was performed as described with slight modifications to the original protocol using on average 5 µg total protein per sample and resulting in theoretically 5 µg peptides in 22 µL 50 mM triethylammonium bicarbonate per sample. […] This volume was calculated such that the lowest two temperature samples (36.5 °C and 41.2 °C) contained 10 µg total protein on average. […]

[2] = tested on: HeLa GRASP55 KO cells; test: Transmission electron microscopy of Golgi apparatus, HeLa GRASP55 KO; type: cell-based; details: 100 nM, 24 h, HeLa GRASP55 KO (also wt)
Method: HeLa wt and HeLa GRASP55 KO cells were seeded into 10 cm dishes. […] After treatment, cells were washed with Dulbecco´s phosphate-buffered saline (DPBS, Thermo Fisher Scientific, Waltham, MA, USA, #14,190,250) and then fixed using 2.5% glutaraldehyde and 4% paraformaldehyde in 0.1 M sodium cacodylate, pH 7.4 overnight at 4 °C. Then, cells were harvested with a cell scraper and centrifuged at 4,000 × g for 5 min. Cell pellets were washed twice with 0.1 M sodium cacodylate buffer, pH 7.2, then heated to 40 °C and embedded into 3% low melting agarose. The agarose was dissolved at 40 °C in a water bath and after aspiration of the supernatant a volume of approximately 10 µL was left, which was resuspended in agarose. After centrifugation at approximately 4,000 x g for 2 min, the samples were covered with 1% OsO4 in 0.1 M sodium cacodylate buffer for 60 min at RT. After washing two times with sodium cacodylate buffer for 10 min and twice with 70% EtOH for 15 min at RT, block contrast was applied using 1% uranyl acetate/1% phosphorotungstic acid in 70% EtOH (freshly prepared and filtered) for 1 h at RT. The samples were dehydrated in a graded ethanol series (90% EtOH, 96% EtOH, 100% EtOH) and embedded in SPURR epoxy resin (Serva, Heidelberg, Germany, #21,050). After polymerization at 70 °C for 24 h, 70 nm ultrathin sections were cut using an Ultracut EM UC7 (Leica, Wetzlar, Germany). […]

[3] = molecular target: GRASP55 (Homo sapiens, UniProt Q9H8Y8); test: Thermal proteome profiling temperature range (TPP-TR/RTSA), GRASP55; type: binding; parameters: endogenous in cells; host or cells: HeLa wt cells; details: 100 nM, 6 h
Method: as §1, §2, §3, §4

CCCCCC1=C/C(=C/c2[nH]c(-c3ccc[nH]3)cc2OC)N=C1C [Prodigiosin, prodigiosin]
Mean_dTm [1]: -0.6723
Golgi apparatus morphology (TEM) [2]: Severe structural changes of the Golgi apparatus
mean melting point difference of GRASP55 (TPP-TR) ([3]; HeLa wt, vs DMSO): 2.1 °C
effect on GRASP55 abundance ([3]; intensities at 36.5 °C): No effect
